Laboratory results as given in ChEMBL document CHEMBL2150950, “Effect of 4-aryl-2-methyl-5-nitro-1,4-dihydropyridine-3-carboxylates on the guinea pig papillary muscle and isolated human vena saphena magna that is used for coronary artery bypass grafting” (2011).

Assays:
[1] = Ionotropic effect in guinea pig right ventricle papillary muscles assessed as contraction force at 10^-4 M by force transduction assay relative to untreated control (reference value: 100%) in presence of 2 x 10^-5 M KATP channel blocker glibenclamide; assay type: functional, Cavia porcellus, Heart right ventricle
[2] = Ionotropic effect in guinea pig right ventricle papillary muscles assessed as contraction force at 10^-7 M by force transduction assay relative to untreated control (reference value: 100%) in presence of 1 x 10^-6 M IKr channel blocker Sotalol; assay type: functional, Cavia porcellus, Heart right ventricle
[3] = Ionotropic effect in guinea pig right ventricle papillary muscles assessed as contraction force at 10^-5 M by force transduction assay relative to untreated control (reference value: 100%) in presence of 2 x 10^-5 M KATP channel blocker glibenclamide; assay type: functional, Cavia porcellus, Heart right ventricle
[4] = (§1) Ionotropic effect in guinea pig ventricle papillary muscles assessed as lengthening of 50% repolarized cardiac action potential duration time at 10^-5 M by microelectrode technique relative to untreated control (reference value: 132 to 176 APD50 ms); assay type: functional, Cavia porcellus, Papillary muscle
[5] = as §1, with “90%” for “50%”, “209” for “132”, “222” for “176”, “ms) in presence of 3.1 x 10^-6 M inward rectifier current blocker BaCl2” for “ms)”; assay type: functional, Cavia porcellus
[6] = as §1, with “10%” for “50%”, “10^-4” for “10^-5”, “52” for “132”, “54 APD10” for “176 APD50”, “ms) in presence of 1 x 10^-6 M IKr channel blocker Sotalol” for “ms)”; assay type: functional, Cavia porcellus
[7] = (§2) Ionotropic effect in guinea pig ventricle papillary muscles assessed as lengthening of 10% repolarized cardiac action potential duration time at 10^-4 M by microelectrode technique relative to untreated control (reference value: 37 to 47 APD10 ms); assay type: functional, Cavia porcellus, Papillary muscle
[8] = (§3) Ionotropic effect in guinea pig ventricle papillary muscles assessed as lengthening of 90% repolarized cardiac action potential duration time at 10^-6 M by microelectrode technique relative to untreated control (reference value: 132 to 176 APD50 ms); assay type: functional, Cavia porcellus, Papillary muscle
[9] = (§4) Ionotropic effect in guinea pig ventricle papillary muscles assessed as lengthening of 90% repolarized cardiac action potential duration time at 10^-5 M by microelectrode technique relative to untreated control (reference value: 132 to 176 APD50 ms); assay type: functional, Cavia porcellus, Papillary muscle
[10] = as §3, with “209” for “132”, “222” for “176”, “ms) in presence of 2 x 10^-5 M KATP channel blocker glibenclamide” for “ms)”; assay type: functional, Cavia porcellus
[11] = (§5) Ionotropic effect in guinea pig ventricle papillary muscles assessed as lengthening of 25% repolarized cardiac action potential duration time at 10^-6 M by microelectrode technique relative to untreated control (reference value: 84 to 104 APD25 ms); assay type: functional, Cavia porcellus, Papillary muscle
[12] = Ionotropic effect in guinea pig right ventricle papillary muscles assessed as contraction force at 10^-6 M by force transduction assay relative to untreated control (reference value: 100%) in presence of 2 x 10^-5 M KATP channel blocker glibenclamide; assay type: functional, Cavia porcellus, Heart right ventricle
[13] = as §2, with “10^-5” for “10^-4”, “52” for “37”, “54” for “47”, “ms) in presence of 1 x 10^-6 M IKr channel blocker Sotalol” for “ms)”; assay type: functional, Cavia porcellus
[14] = as §4, with “10^-4” for “10^-5”, “209” for “132”, “222” for “176”, “ms) in presence of 2 x 10^-5 M KATP channel blocker glibenclamide” for “ms)”; assay type: functional, Cavia porcellus
[15] = Ionotropic effect in guinea pig right ventricle papillary muscles assessed as contraction force at 10^-6 M by force transduction assay relative to untreated control (reference value: 100%) in presence of 1 x 10^-6 M IKr channel blocker Sotalol; assay type: functional, Cavia porcellus, Heart right ventricle
[16] = as §4, with “10^-7” for “10^-5”, “209” for “132”, “222” for “176”, “ms) in presence of 2 x 10^-5 M KATP channel blocker glibenclamide” for “ms)”; assay type: functional, Cavia porcellus
[17] = as §1, with “10^-7” for “10^-5”, “180” for “132”, “192” for “176”, “ms) in presence of 3.1 x 10^-6 M inward rectifier current blocker BaCl2” for “ms)”; assay type: functional, Cavia porcellus
[18] = Ionotropic effect in guinea pig right ventricle papillary muscles assessed as contraction force at 10^-5 M by force transduction assay relative to untreated control (reference value: 100%) in presence of 1 x 10^-6 M IKr channel blocker Sotalol; assay type: functional, Cavia porcellus, Heart right ventricle
[19] = as §5, with “10^-4” for “10^-6”, “120” for “84”, “131” for “104”, “ms) in presence of 1 x 10^-6 M IKr channel blocker Sotalol” for “ms)”; assay type: functional, Cavia porcellus
[20] = as §1, with “10^-7” for “10^-5”, “180” for “132”, “192” for “176”, “ms) in presence of 2 x 10^-5 M KATP channel blocker glibenclamide” for “ms)”; assay type: functional, Cavia porcellus
[21] = as §4, with “209” for “132”, “222” for “176”, “ms) in presence of 2 x 10^-5 M KATP channel blocker glibenclamide” for “ms)”; assay type: functional, Cavia porcellus
[22] = as §3, with “10^-7” for “10^-6”, “209” for “132”, “222” for “176”, “ms) in presence of 1 x 10^-6 M IKr channel blocker Sotalol” for “ms)”; assay type: functional, Cavia porcellus
[23] = Ionotropic effect in guinea pig right ventricle papillary muscles assessed as contraction force at 10^-6 M by force transduction assay relative to untreated control (reference value: 100%); assay type: functional, Cavia porcellus, Papillary muscle
[24] = Ionotropic effect in guinea pig right ventricle papillary muscles assessed as contraction force at 10^-5 M by force transduction assay relative to untreated control (reference value: 100%); assay type: functional, Cavia porcellus, Papillary muscle
[25] = as §1, with “10^-6” for “10^-5”, “180” for “132”, “192” for “176”, “ms) in presence of 1 x 10^-6 M IKr channel blocker Sotalol” for “ms)”; assay type: functional, Cavia porcellus
[26] = Ionotropic effect in guinea pig ventricle papillary muscles assessed as lengthening of 90% repolarized cardiac action potential duration time at 10^-4 M by microelectrode technique relative to untreated control (reference value: 132 to 176 APD50 ms); assay type: functional, Cavia porcellus, Papillary muscle
[27] = as §5, with “120” for “84”, “131” for “104”, “ms) in presence of 1 x 10^-6 M IKr channel blocker Sotalol” for “ms)”; assay type: functional, Cavia porcellus
[28] = Ionotropic effect in guinea pig ventricle papillary muscles assessed as lengthening of 25% repolarized cardiac action potential duration time at 10^-7 M by microelectrode technique relative to untreated control (reference value: 84 to 104 APD25 ms); assay type: functional, Cavia porcellus, Papillary muscle
[29] = Ionotropic effect in guinea pig right ventricle papillary muscles assessed as contraction force at 10^-4 M by force transduction assay relative to untreated control (reference value: 100%) in presence of 3.1 x 10^-6 M inward rectifier current blocker BaCl2; assay type: functional, Cavia porcellus, Heart right ventricle
[30] = as §3, with “10^-5” for “10^-6”, “209” for “132”, “222” for “176”, “ms) in presence of 1 x 10^-6 M IKr channel blocker Sotalol” for “ms)”; assay type: functional, Cavia porcellus
[31] = as §2, with “10^-7” for “10^-4”, “52” for “37”, “54” for “47”, “ms) in presence of 3.1 x 10^-6 M inward rectifier current blocker BaCl2” for “ms)”; assay type: functional, Cavia porcellus

SMILES: CCCOCCOC(=O)C1=C(C)NC=C([N+](=O)[O-])C1c1ccccc1OC(F)F (stereo unspecified)
- Activity [1]: 211%
- Activity [2]: 85%
- Activity [3]: 163%
- Time [4]: 205.8 ms
- Time [5]: 260.5 ms
- Time [6]: 55.7 ms
- Time [7]: 55.5 ms
- Time [8]: 229 ms
- Time [9]: 238.5 ms
- Time [10]: 247 ms
- Time [11]: 118.6 ms
- Activity [12]: 120%
- Time [13]: 54.6 ms
- Time [14]: 276 ms
- Activity [15]: 93.6%
- Time [16]: 234.5 ms
- Time [17]: 210 ms
- Activity [18]: 100.2%
- Time [19]: 142 ms
- Time [20]: 209 ms
- Time [21]: 265 ms
- Time [22]: 224.4 ms
- Activity [23]: 120%
- Activity [24]: 134%
- Time [25]: 192 ms
- Time [26]: 256 ms
- Time [27]: 132.9 ms
- Time [28]: 112.7 ms
- Activity [29]: 204.5%
- Time [30]: 227.7 ms
- Time [31]: 64.3 ms
